# Measurements published in ChEMBL document CHEMBL1201862, “PubChem BioAssay data set” (2004).
#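 Exposure lasted 48 hours, with cells grown in 96-well plates and compounds tested at five concentrations. GI50 is the concentration that inhibits growth by half.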 Calls of active or inactive are those of the source. Rule as the data show it: active = GI50 up to about 1.1 µM and inactive = higher.
# Legend:
# Experiment in all cases: DTP human tumour cell line panel, 48 h
# 786-0 = test system: 786-0
# A498 = test system: A498
# A549 = test system: A549
# ACHN = test system: ACHN
# CAKI-1 = test system: CAKI-1
# CCRF-CEM = test system: CCRF-CEM
# COLO 205 = test system: COLO 205
# DLD-1 = test system: DLD-1
# DMS-114 = test system: DMS-114
# DMS-273 = test system: DMS-273
# EKVX = test system: EKVX
# HCC 2998 = test system: HCC 2998
# HCT-15 = test system: HCT-15
# HL-60 = test system: HL-60
# HOP-18 = test system: HOP-18
# HOP-62 = test system: HOP-62
# HT-29 = test system: HT-29
# IGROV-1 = test system: IGROV-1
# K562 = test system: K562
# KM-20L2 = test system: KM-20L2
# KM12 = test system: KM12
# LOX IMVI = test system: LOX IMVI
# LXFL 529 = test system: LXFL 529
# M14 = test system: M14
# M19-MEL = test system: M19-MEL
# MOLT-4 = test system: MOLT-4
# Malme-3M = test system: Malme-3M
# NCI-H226 = test system: NCI-H226
# NCI-H23 = test system: NCI-H23
# NCI-H460 = test system: NCI-H460
# NCI-H522 = test system: NCI-H522
# OVCAR-3 = test system: OVCAR-3
# OVCAR-4 = test system: OVCAR-4
# OVCAR-5 = test system: OVCAR-5
# OVCAR-8 = test system: OVCAR-8
# RPMI-8226 = test system: RPMI-8226
# RXF 393 = test system: RXF 393
# RXF 631 = test system: RXF 631
# SF-268 = test system: SF-268
# SF-295 = test system: SF-295
# SF-539 = test system: SF-539
# SK-MEL-28 = test system: SK-MEL-28
# SK-MEL-2 = test system: SK-MEL-2
# SK-MEL-5 = test system: SK-MEL-5
# SK-OV-3 = test system: SK-OV-3
# SN12C = test system: SN12C
# SNB-19 = test system: SNB-19
# SNB-75 = test system: SNB-75
# SW-620 = test system: SW-620
# TK-10 = test system: TK-10
# U-251 = test system: U-251
# UACC-257 = test system: UACC-257
# UACC-62 = test system: UACC-62
# UO-31 = test system: UO-31
# XF498 = test system: XF498
# HCT-116 = test system: HCT-116
# HOP-92 = test system: HOP-92
# SNB-78 = test system: SNB-78
# SR = test system: SR
compound,measurement,setting,value
Nc1ccc(C2=Nc3ccccc3SC(c3ccccc3O)C2)cc1 (stereo not given),GI50,786-0,28.8 µM (inactive)
same,GI50,A498,7.13 µM (inactive)
same,GI50,A549,51.2 µM (inactive)
same,GI50,ACHN,42.2 µM (inactive)
same,GI50,CAKI-1,58.9 µM (inactive)
same,GI50,CCRF-CEM,12.4 µM (inactive)
same,GI50,COLO 205,45.1 µM (inactive)
same,GI50,DLD-1,34.1 µM (inactive)
same,GI50,DMS-114,15.7 µM (inactive)
same,GI50,DMS-273,54.5 µM (inactive)
same,GI50,EKVX,99.8 µM (inactive)
same,GI50,HCC 2998,32.1 µM (inactive)
same,GI50,HCT-15,27.3 µM
same,GI50,HL-60,23.9 µM (inactive)
same,GI50,HOP-18,> 100 µM (inactive)
same,GI50,HOP-62,64 µM (inactive)
same,GI50,HT-29,42.8 µM (inactive)
same,GI50,IGROV-1,46.6 µM (inactive)
same,GI50,K562,15.3 µM (inactive)
same,GI50,KM-20L2,> 100 µM (inactive)
same,GI50,KM12,25.5 µM (inactive)
same,GI50,LOX IMVI,30.7 µM (inactive)
same,GI50,LXFL 529,22 µM (inactive)
same,GI50,M14,54.6 µM (inactive)
same,GI50,M19-MEL,50 µM (inactive)
same,GI50,MOLT-4,19.8 µM (inactive)
same,GI50,Malme-3M,> 100 µM (inactive)
same,GI50,NCI-H226,33.3 µM (inactive)
same,GI50,NCI-H23,30.5 µM (inactive)
same,GI50,NCI-H460,30.6 µM (inactive)
same,GI50,NCI-H522,21.3 µM (inactive)
same,GI50,OVCAR-3,23.3 µM (inactive)
same,GI50,OVCAR-4,51.6 µM (inactive)
same,GI50,OVCAR-5,> 100 µM (inactive)
same,GI50,OVCAR-8,42.1 µM (inactive)
same,GI50,RPMI-8226,17.5 µM (inactive)
same,GI50,RXF 393,24.9 µM (inactive)
same,GI50,RXF 631,68.2 µM (inactive)
same,GI50,SF-268,33.7 µM (inactive)
same,GI50,SF-295,38 µM (inactive)
same,GI50,SF-539,38.2 µM (inactive)
same,GI50,SK-MEL-28,65.8 µM (inactive)
same,GI50,SK-MEL-2,> 100 µM (inactive)
same,GI50,SK-MEL-5,26.1 µM (inactive)
same,GI50,SK-OV-3,> 100 µM (inactive)
same,GI50,SN12C,45.5 µM (inactive)
same,GI50,SNB-19,43.1 µM (inactive)
same,GI50,SNB-75,24.7 µM (inactive)
same,GI50,SW-620,33.7 µM (inactive)
same,GI50,TK-10,> 100 µM (inactive)
same,GI50,U-251,45.5 µM (inactive)
same,GI50,UACC-257,51.9 µM (inactive)
same,GI50,UACC-62,38.8 µM (inactive)
same,GI50,UO-31,29.8 µM (inactive)
same,GI50,XF498,16.3 µM (inactive)
O=C(O)CCSC(=O)Nc1ccc(/N=N/c2ccccc2)cc1,GI50,786-0,> 100 µM (inactive)
same,GI50,A498,69.5 µM (inactive)
same,GI50,A549,> 100 µM (inactive)
same,GI50,ACHN,43.6 µM (inactive)
same,GI50,CAKI-1,> 100 µM (inactive)
same,GI50,CCRF-CEM,62.5 µM (inactive)
same,GI50,COLO 205,> 100 µM (inactive)
same,GI50,DLD-1,> 100 µM (inactive)
same,GI50,DMS-114,61.8 µM (inactive)
same,GI50,DMS-273,> 100 µM (inactive)
same,GI50,EKVX,74 µM (inactive)
same,GI50,HCC 2998,> 100 µM (inactive)
same,GI50,HCT-116,> 100 µM (inactive)
same,GI50,HCT-15,> 100 µM
same,GI50,HL-60,36.5 µM (inactive)
same,GI50,HOP-18,> 100 µM (inactive)
same,GI50,HOP-62,> 100 µM (inactive)
same,GI50,HOP-92,> 100 µM (inactive)
same,GI50,HT-29,> 100 µM (inactive)
same,GI50,IGROV-1,92.9 µM (inactive)
same,GI50,K562,80.5 µM (inactive)
same,GI50,KM-20L2,> 100 µM (inactive)
same,GI50,KM12,> 100 µM (inactive)
same,GI50,LOX IMVI,> 100 µM (inactive)
same,GI50,LXFL 529,61.1 µM (inactive)
same,GI50,M14,> 100 µM (inactive)
same,GI50,MOLT-4,30.2 µM (inactive)
same,GI50,Malme-3M,> 100 µM (inactive)
same,GI50,NCI-H226,> 100 µM (inactive)
same,GI50,NCI-H23,> 100 µM (inactive)
same,GI50,NCI-H460,> 100 µM (inactive)
same,GI50,OVCAR-3,> 100 µM (inactive)
same,GI50,OVCAR-4,95.1 µM (inactive)
same,GI50,OVCAR-5,> 100 µM (inactive)
same,GI50,OVCAR-8,61.1 µM (inactive)
same,GI50,RPMI-8226,> 100 µM (inactive)
same,GI50,RXF 393,> 100 µM (inactive)
same,GI50,RXF 631,> 100 µM (inactive)
same,GI50,SF-268,> 100 µM (inactive)
same,GI50,SF-295,64 µM (inactive)
same,GI50,SF-539,> 100 µM (inactive)
same,GI50,SK-MEL-28,> 100 µM (inactive)
same,GI50,SK-MEL-5,> 100 µM (inactive)
same,GI50,SK-OV-3,> 100 µM (inactive)
same,GI50,SN12C,> 100 µM (inactive)
same,GI50,SNB-19,> 100 µM (inactive)
same,GI50,SNB-75,> 100 µM (inactive)
same,GI50,SNB-78,> 100 µM (inactive)
same,GI50,SR,37.9 µM (inactive)
same,GI50,SW-620,> 100 µM (inactive)
same,GI50,TK-10,> 100 µM (inactive)
same,GI50,U-251,64.6 µM (inactive)
same,GI50,UACC-257,> 100 µM (inactive)
same,GI50,UACC-62,59.4 µM (inactive)
same,GI50,UO-31,55.3 µM (inactive)
same,GI50,XF498,> 100 µM (inactive)
CC1OC(OC2CCCc3c(O)c4c(c(O)c32)C(=O)c2ccccc2C4=O)CC(N)C1O (stereo not given),GI50,786-0,1.29 µM (inactive)
same,GI50,A498,1.7 µM (inactive)
same,GI50,A549,1.62 µM (inactive)
same,GI50,ACHN,1.88 µM (inactive)
same,GI50,CAKI-1,1.43 µM (inactive)
same,GI50,CCRF-CEM,1.2 µM (inactive)
same,GI50,COLO 205,1.62 µM (inactive)
same,GI50,DLD-1,1.33 µM (inactive)
same,GI50,DMS-114,1.69 µM (inactive)
same,GI50,EKVX,1.71 µM (inactive)
same,GI50,HCC 2998,2.07 µM (inactive)
same,GI50,HCT-116,1.72 µM (inactive)
same,GI50,HL-60,1.75 µM (inactive)
same,GI50,HOP-62,1.57 µM (inactive)
same,GI50,HOP-92,1.43 µM (inactive)
same,GI50,HT-29,1.47 µM (inactive)
same,GI50,IGROV-1,1.69 µM (inactive)
same,GI50,K562,1.01 µM (active)
same,GI50,KM-20L2,2.01 µM (inactive)
same,GI50,KM12,1.58 µM (inactive)
same,GI50,LOX IMVI,1.61 µM (inactive)
same,GI50,LXFL 529,1.55 µM (inactive)
same,GI50,M14,1.79 µM (inactive)
same,GI50,M19-MEL,1.78 µM (inactive)
same,GI50,MOLT-4,0.652 µM (active)
same,GI50,Malme-3M,1.82 µM (inactive)
same,GI50,NCI-H226,1.69 µM (inactive)
same,GI50,NCI-H23,1.77 µM (inactive)
same,GI50,NCI-H460,1.43 µM (inactive)
same,GI50,NCI-H522,1.64 µM (inactive)
same,GI50,OVCAR-3,1.34 µM (inactive)
same,GI50,OVCAR-4,1.68 µM (inactive)
same,GI50,OVCAR-5,1.91 µM (inactive)
same,GI50,OVCAR-8,1.42 µM (inactive)
same,GI50,RPMI-8226,1.58 µM (inactive)
same,GI50,RXF 393,1.02 µM (active)
same,GI50,RXF 631,1.5 µM (inactive)
same,GI50,SF-268,1.69 µM (inactive)
same,GI50,SF-295,1.82 µM (inactive)
same,GI50,SF-539,1.56 µM (inactive)
same,GI50,SK-MEL-28,1.88 µM (inactive)
same,GI50,SK-MEL-2,1.75 µM (inactive)
same,GI50,SK-MEL-5,1.82 µM (inactive)
same,GI50,SK-OV-3,1.15 µM (inactive)
same,GI50,SN12C,1.68 µM (inactive)
same,GI50,SNB-19,1.64 µM (inactive)
same,GI50,SNB-75,1.35 µM (inactive)
same,GI50,SNB-78,1.89 µM (inactive)
same,GI50,SW-620,1.33 µM (inactive)
same,GI50,TK-10,1.6 µM (inactive)
same,GI50,U-251,1.86 µM (inactive)
same,GI50,UACC-257,1.62 µM (inactive)
same,GI50,UO-31,1.73 µM (inactive)
same,GI50,XF498,1.93 µM (inactive)
